Molecules are shown by their SMILES.

This assay concerns the target T1, TLR7/NFKb HEK cells (Homo sapiens, UniProt Q9NYK1).
T1 construct: expressed in transfected cells; host or cells: HEK cells (TLR7/NFKb reporter line)
T1 sequence (Q9NYK1 27-1049): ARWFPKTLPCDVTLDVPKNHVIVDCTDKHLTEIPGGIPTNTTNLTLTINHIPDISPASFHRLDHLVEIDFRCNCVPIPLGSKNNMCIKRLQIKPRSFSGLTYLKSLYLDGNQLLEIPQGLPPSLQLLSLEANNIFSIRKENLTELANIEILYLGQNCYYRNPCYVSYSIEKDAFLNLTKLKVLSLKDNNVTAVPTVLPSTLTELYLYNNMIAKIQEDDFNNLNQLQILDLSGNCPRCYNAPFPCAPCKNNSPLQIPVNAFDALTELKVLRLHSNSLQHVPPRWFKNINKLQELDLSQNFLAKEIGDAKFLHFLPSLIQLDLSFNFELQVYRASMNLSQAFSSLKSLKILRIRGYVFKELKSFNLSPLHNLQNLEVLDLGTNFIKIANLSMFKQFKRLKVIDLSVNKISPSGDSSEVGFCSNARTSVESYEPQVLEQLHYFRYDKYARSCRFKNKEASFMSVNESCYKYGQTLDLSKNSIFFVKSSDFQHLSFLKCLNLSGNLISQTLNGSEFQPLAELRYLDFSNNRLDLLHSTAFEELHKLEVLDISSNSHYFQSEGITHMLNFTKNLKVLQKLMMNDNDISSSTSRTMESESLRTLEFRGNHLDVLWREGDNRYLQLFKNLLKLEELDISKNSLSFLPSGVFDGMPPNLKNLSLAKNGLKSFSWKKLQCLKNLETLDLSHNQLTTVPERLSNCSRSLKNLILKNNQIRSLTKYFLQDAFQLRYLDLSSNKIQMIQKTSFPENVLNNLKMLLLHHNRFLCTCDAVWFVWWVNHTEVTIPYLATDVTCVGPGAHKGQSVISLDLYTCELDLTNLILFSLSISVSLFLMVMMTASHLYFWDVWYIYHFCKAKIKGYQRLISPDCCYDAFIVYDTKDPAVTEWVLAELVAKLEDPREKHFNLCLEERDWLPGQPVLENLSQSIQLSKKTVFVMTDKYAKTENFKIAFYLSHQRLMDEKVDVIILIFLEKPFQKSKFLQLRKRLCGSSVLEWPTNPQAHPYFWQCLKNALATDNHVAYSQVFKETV
Put plainly: HEK Cell Assay (TLR7/NFKb reporter, Steady-Glo luciferase readout). The format is cell-based. The settings on record: 30 min compound preincubation, then R*48 agonist for 5 hours, read-out: Potency. The method, boiled down:
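Steady-Glo luminescence after 5 h stimulation with R*48 agonist, following 30 min compound preincubation. Assay run in HEK cells carrying a TLR7/NFKb luciferase reporter, plated at 5000 cells/well and grown 24 h at 37° C (10% CO2) before treatment.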
Regarding `CCN(CC)CC(=O)NCC1CCN(c2ccc(C#N)c3ncccc23)CC1` [Compound 398, N-[1-(8-Cyano-quinolin-5-yl)-piperidin-4-ylmethyl]-2-diethylamino-acetamide], the IC50 is under 1 µM. For the molecule `C[C@H]1C[C@@H](NC(=O)C2CC(F)(F)C2)CN(c2ccc(C(F)F)c3nccnc23)C1` [Compound 329, N-[(3R,5S)-1-[8-(difluoromethyl)quinoxalin-5-yl]-5-methylpiperidin-3-yl]-3,3-difluorocyclobutane-1-carboxamide], the IC50 lay in the range of 1 to 10 µM. On to `C[C@H]1C[C@@H](NC(=O)CNC(C)(C)C)CN(c2ccnc3nccnc23)C1` [Compound 143, 2-(tert-butylamino)-N-[(3R,5S)-5-methyl-1-[pyrido[2,3-b]pyrazin-8-yl]piperidin-3-yl]acetamide], for which the IC50 is over 10 µM. `C[C@H]1C[C@@H](NCC#N)CN(c2ccc(C#N)c3nccnc23)C1` [Compound 38, 8-((3R,5S)-3-(cyanomethylamino)-5-methylpiperidin-1-yl)quinoxaline-5-carbonitrile]: the IC50 was under 1 µM. As to `CN(C)CC(=O)N[C@H]1C[C@@H](C2CC2)CN(c2ccc(C#N)c3nccnc23)C1` (relative stereo) [Compound 179, cis-N-[1-(8-cyanoquinoxalin-5-yl)-5-cyclopropylpiperidin-3-yl]-2-(dimethylamino)acetamide], the IC50 was in the range of 1 to 10 µM.

Take `C[C@H]1C[C@@H](NC(=O)CC2(C)CCN(C)CC2)CN(c2ccc(C(F)(F)F)c3nccnc23)C1` [Compound 255, 2-(1,4-dimethylpiperidin-4-yl)-N-[(3R,5S)-5-methyl-1-[8-(trifluoromethyl)quinoxalin-5-yl]piperidin-3-yl]acetamide]: the IC50 is under 1 µM. As for `C[C@H]1C[C@@H](N(C)C(=O)CN(C)C)CN(c2ccc(C(F)(F)F)c3ncccc23)C1` [Compound 452, 2-Dimethylamino-N-methyl-N-[(3R,5S)-5-methyl-1-(8-trifluoromethyl-quinolin-5-yl)-piperidin-3-yl]-acetamide], the IC50 is under 1 µM. Turning to `N#Cc1ccc(N2CC(N)CC(C(F)(F)F)C2)c2cccnc12` (single isomer, unassigned) [Compound 73], the IC50 was under 1 µM. For `COC(C)C(=O)N[C@@H]1C[C@H](C)CN(c2ccc(C#N)c3nccnc23)C1` (single isomer, unassigned) [Compound 158] the value was 1 to 10 µM; for `C[C@H]1C[C@@H](NC(=O)CN2CCN(C)CC2)CN(c2ccc(C(F)(F)F)c3ncccc23)C1` [Compound 243, N-[(3R,5S)-5-methyl-1-[8-(trifluoromethyl)quinolin-5-yl]piperidin-3-yl]-2-(4-methylpiperazin-1-yl)acetamide], under 1 µM.

Regarding `C[C@H]1C[C@@H](NC(=O)CC2CN(C)C2)CN(c2ccc(C(F)F)c3ncccc23)C1` [Compound 364, N-[(3R,5S)-1-[8-(difluoromethyl)quinolin-5-yl]-5-methylpiperidin-3-yl]-2-(1-methylazetidin-3-yl)acetamide], the IC50 was under 1 µM. Consider `C[C@H]1C[C@@H](NC(=O)CC2CCN(C)CC2)CN(c2ccc(C#N)c3nccnc23)C1` [Compound 232, N-[(3R,5S)-1-(8-cyanoquinoxalin-5-yl)-5-methylpiperidin-3-yl]-2-(1-methylpiperidin-4-yl)acetamide], for which the IC50 is under 1 µM. On to `C[C@H]1C[C@@H](N)CN(c2ccc(C(F)(F)F)c3nccnc23)C1` [Compound 77, (3R,5S)-5-methyl-1-[8-(trifluoromethyl)quinoxalin-5-yl]piperidin-3-amine], for which the IC50 is under 1 µM.

For the molecule `CC1CC(N)CN(c2ccc(F)c3nccnc23)C1` (single isomer, unassigned) [Compound 339], the IC50 was under 1 µM. Consider `NC1CN(c2ccc(C(F)(F)F)c3ncccc23)CC(F)(F)C1` (centres unmarked) [Compound 510, 5,5-Difluoro-1-(8-trifluoromethyl-quinolin-5-yl)-piperidin-3-ylamine], for which the IC50 is under 1 µM. As for `COCCN[C@@H]1C[C@H](C)CN(c2c(F)cc(C#N)c3nccnc23)C1` [Compound 344, 7-fluoro-8-[(3R,5S)-3-[(2-methoxyethyl)amino]-5-methylpiperidin-1-yl]quinoxaline-5-carbonitrile], the IC50 lay in the range of 1 to 10 µM. Under `O=C(CN1CCCCC1)NCC1CCN(c2ccnc3ccccc23)CC1` [Compound 8, 2-(Piperidin-1-yl)-N-((1-(quinolin-4-yl)piperidin-4-yl)methyl)acetamide] stands 1 to 10 µM; under `CC(C(=O)N[C@@H]1C[C@H](C)CN(c2ccc(C(F)(F)F)c3ncccc23)C1)N1CCC(O)CC1` (stereo partly drawn) [Compound 289, 2-(4-hydroxypiperidin-1-yl)-N-[(3R,5S)-5-methyl-1-[8-(trifluoromethyl)quinolin-5-yl]piperidin-3-yl]propanamide], under 1 µM; under `COCCN[C@H]1C[C@@H](C(F)(F)F)CN(c2ccc(C#N)c3nccnc23)C1` (relative stereo) [Compound 221, cis-8-[3-[(2-methoxyethyl)amino]-5-(trifluoromethyl)piperidin-1-yl]quinoxaline-5-carbonitrile], 1 to 10 µM. Turning to `C[C@H]1C[C@@H](NC(=O)CN(C)CCO)CN(c2ccnc3nccnc23)C1` [Compound 145, 2-[(2-hydroxyethyl)(methyl)amino]-N-[(3R,5S)-5-methyl-1-[pyrido[2,3-b]pyrazin-8-yl]piperidin-3-yl]acetamide], the IC50 was over 10 µM. For `C[C@H]1C[C@@H](NC2CCN(C)C2=O)CN(c2ccc(C#N)c3nccnc23)C1` (single isomer, unassigned) [Compound 124] the value was under 1 µM. For the molecule `C[C@H]1C[C@@H](NC(=O)CC2CCN(C)C2)CN(c2ccc(C(F)(F)F)c3nccnc23)C1` (stereo partly drawn) [Compound 295, N-[(3R,5S)-5-methyl-1-[8-(trifluoromethyl)quinoxalin-5-yl]piperidin-3-yl]-2-(1-methylpyrrolidin-3-yl)acetamide], the IC50 was under 1 µM. As to `N#Cc1ccc(N2CC(N)CC(C(F)(F)F)C2)c2nccnc12` (single isomer, unassigned) [Compound 83], the IC50 is under 1 µM. Consider `C[C@H]1C[C@@H](NC(=O)CC(C)(C)CN)CN(c2ccc(C(F)F)c3nccnc23)C1` [Compound 327, 4-amino-N-[(3R,5S)-1-[8-(difluoromethyl)quinoxalin-5-yl]-5-methylpiperidin-3-yl]-3,3-dimethylbutanamide], for which the IC50 is under 1 µM. Take `CN(C)CC(=O)NC1CN(c2ccc(C#N)c3ncccc23)CC(F)(F)C1` (single isomer, unassigned) [Compound 450]: the IC50 was in the range of 1 to 10 µM.

On to `C[C@H]1C[C@@H](NC(=O)CN2CC(N)C2)CN(c2ccc(C#N)c3nccnc23)C1` [Compound 356, 2-(3-aminoazetidin-1-yl)-N-[(3R,5S)-1-(8-cyanoquinoxalin-5-yl)-5-methylpiperidin-3-yl]acetamide], for which the IC50 was under 1 µM.

In the case of `C[C@@H]1CN(c2ccc(C#N)c3nccnc23)C[C@H](CN2CCC(N3CCCCC3)CC2)O1` [Compound 59, 8-((2S,6R)-2-(1,4′-bipiperidin-1′-ylmethyl)-6-methylmorpholino)quinoxaline-5-carbonitrile], the IC50 is under 1 µM. For `CN1CCCC1C(=O)NCC1CCN(c2ccnc3nccnc23)CC1` (centres unmarked) [Compound 411, 1-Methyl-pyrrolidine-2-carboxylic acid (1-pyrido[2,3-b]pyrazin-8-yl-piperidin-4-ylmethyl)-amide], the IC50 lay within 1 to 10 µM. On to `CCC(C)CC(=O)N[C@@H]1C[C@H](C)CN(c2ccnc3nccnc23)C1` (single isomer, unassigned) [Compound 153], for which the IC50 lay within 1 to 10 µM. Turning to `C[C@H]1C[C@@H](NC(=O)Cn2cccn2)CN(c2ccc(C#N)c3nccnc23)C1` [Compound 169, N-[(3R,5S)-1-(8-cyanoquinoxalin-5-yl)-5-methylpiperidin-3-yl]-2-(1H-pyrazol-1-yl)acetamide], the IC50 was under 1 µM. Take `C[C@H]1C[C@@H](NC(=O)CC2CCCN(C)C2)CN(c2ccc(C(F)F)c3ncccc23)C1` (stereo partly drawn) [Compound 303, N-[(3R,5S)-1-[8-(difluoromethyl)quinolin-5-yl]-5-methylpiperidin-3-yl]-2-(1-methylpiperidin-3-yl)acetamide]: the IC50 is under 1 µM. For `CC(C)[C@H](O)C(=O)NC1CC(C(F)(F)F)CN(c2ccc(C#N)c3ncccc23)C1` (single isomer, unassigned) [Compound 430] the value was under 1 µM.
